Tested on: 695427-040-R-J1-PDC complex spheroid viability
Assay: Anticancer human tumor 695427-040-R-J1-PDC patient-derived colon adenocarcinoma cell line growth inhibition [RAS]
Settings: for IC50: curve of first compound; for viability, T/C: stronger effect = lower value
Summary of the method: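 Tumour cells grown as complex spheroids with HUVEC endothelial cells and mesenchymal stem cells, treated with RAS pathway inhibitor combinations. Each agent spans half-log steps from near clinical Cmax, or 10 microM where Cmax is unknown.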

[1] = second compound 0.000949 µM, first compound 0.0316 µM
[2] = second compound 0.000949 µM, first compound 0.1 µM
[3] = second compound 0.000949 µM, first compound 0.316 µM
[4] = second compound 0.000949 µM, first compound 1 µM
[5] = second compound 0.000949 µM, first compound 3.16 µM
[6] = second compound 0.000949 µM, first compound 10 µM
[7] = second compound 0.003 µM, first compound 0.0316 µM
[8] = second compound 0.003 µM, first compound 0.1 µM
[9] = second compound 0.003 µM, first compound 0.316 µM
[10] = second compound 0.003 µM, first compound 1 µM
[11] = second compound 0.003 µM, first compound 3.16 µM
[12] = second compound 0.003 µM, first compound 10 µM
[13] = second compound 0.00949 µM, first compound 0.0316 µM
[14] = second compound 0.00949 µM, first compound 0.1 µM
[15] = second compound 0.00949 µM, first compound 0.316 µM
[16] = second compound 0.00949 µM, first compound 1 µM
[17] = second compound 0.00949 µM, first compound 3.16 µM
[18] = second compound 0.00949 µM, first compound 10 µM
[19] = second compound 0.03 µM, first compound 0.0316 µM
[20] = second compound 0.03 µM, first compound 0.1 µM
[21] = second compound 0.03 µM, first compound 0.316 µM
[22] = second compound 0.03 µM, first compound 1 µM
[23] = second compound 0.03 µM, first compound 3.16 µM
[24] = second compound 0.03 µM, first compound 10 µM
[25] = second compound 0.0949 µM, first compound 0.0316 µM
[26] = second compound 0.0949 µM, first compound 0.1 µM
[27] = second compound 0.0949 µM, first compound 0.316 µM
[28] = second compound 0.0949 µM, first compound 1 µM
[29] = second compound 0.0949 µM, first compound 3.16 µM
[30] = second compound 0.0949 µM, first compound 10 µM
[31] = second compound 0.3 µM, first compound 0.0316 µM
[32] = second compound 0.3 µM, first compound 0.1 µM
[33] = second compound 0.3 µM, first compound 0.316 µM
[34] = second compound 0.3 µM, first compound 1 µM
[35] = second compound 0.3 µM, first compound 3.16 µM
[36] = second compound 0.3 µM, first compound 10 µM
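Also: viability read after seven days of drug exposure.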
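For viability, T/C in this document: 100% = DMSO vehicle control viability.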

CC(C)NCC(C(=O)N1CCN(c2ncnc3c2C(C)CC3O)CC1)c1ccc(Cl)cc1 (stereo not drawn) + CCn1c(-c2cccnc2C(C)OC)c2c3cc(ccc31)N1CCOC(CC(NC(=O)C(C(C)C)N(C)C(=O)C3(F)CCN(C(=O)C#CC(C)(C)N(C)C)CC3)C(=O)N3CCCC(N3)C(=O)OCC(C)(C)C2)C1
IC50 (second compound 0.000949 µM): > 10 µM | IC50 (second compound 0.003 µM): > 10 µM | IC50 (second compound 0.00949 µM): > 10 µM | IC50 (second compound 0.03 µM): > 10 µM | IC50 (second compound 0.0949 µM): > 10 µM | IC50 (second compound 0.3 µM): > 10 µM | viability, T/C [1]: 86% | viability, T/C [2]: 91.1% | viability, T/C [3]: 91.7% | viability, T/C [4]: 68.2% | viability, T/C [5]: 62.6% | viability, T/C [6]: 60.8% | viability, T/C [7]: 103% | viability, T/C [8]: 91.4% | viability, T/C [9]: 65.9% | viability, T/C [10]: 84.7% | viability, T/C [11]: 74.7% | viability, T/C [12]: 54.6% | viability, T/C [13]: 113% | viability, T/C [14]: 89.5% | viability, T/C [15]: 59.9% | viability, T/C [16]: 85.2% | viability, T/C [17]: 63.4% | viability, T/C [18]: 63.5% | viability, T/C [19]: 91.6% | viability, T/C [20]: 75.3% | viability, T/C [21]: 81.5% | viability, T/C [22]: 83.8% | viability, T/C [23]: 59.2% | viability, T/C [24]: 56.9% | viability, T/C [25]: 88.5% | viability, T/C [26]: 88.7% | viability, T/C [27]: 72.6% | viability, T/C [28]: 70.8% | viability, T/C [29]: 77.1% | viability, T/C [30]: 71.2% | viability, T/C [31]: 105% | viability, T/C [32]: 72.8% | viability, T/C [33]: 79.8% | viability, T/C [34]: 74.2% | viability, T/C [35]: 57% | viability, T/C [36]: 56.2%

CC(C)n1nc(-c2ccc3oc(N)nc3c2)c2c(N)ncnc21 + CCn1c(-c2cccnc2C(C)OC)c2c3cc(ccc31)N1CCOC(CC(NC(=O)C(C(C)C)N(C)C(=O)C3(F)CCN(C(=O)C#CC(C)(C)N(C)C)CC3)C(=O)N3CCCC(N3)C(=O)OCC(C)(C)C2)C1
IC50 (second compound 0.000949 µM): > 0.1 µM | IC50 (second compound 0.003 µM): > 0.1 µM | IC50 (second compound 0.00949 µM): > 0.1 µM | IC50 (second compound 0.03 µM): > 0.1 µM | IC50 (second compound 0.0949 µM): 0.0953 µM | IC50 (second compound 0.3 µM): 0.0897 µM | viability, T/C (second compound 0.000949 µM, first compound 0.000316 µM): 107% | viability, T/C (second compound 0.000949 µM, first compound 0.001 µM): 120% | viability, T/C (second compound 0.000949 µM, first compound 0.00316 µM): 78.7% | viability, T/C (second compound 0.000949 µM, first compound 0.01 µM): 90.6% | viability, T/C [1]: 74.3% | viability, T/C [2]: 56.2% | viability, T/C (second compound 0.003 µM, first compound 0.000316 µM): 107% | viability, T/C (second compound 0.003 µM, first compound 0.001 µM): 84.3% | viability, T/C (second compound 0.003 µM, first compound 0.00316 µM): 98.6% | viability, T/C (second compound 0.003 µM, first compound 0.01 µM): 83.5% | viability, T/C [7]: 62.1% | viability, T/C [8]: 57.3% | viability, T/C (second compound 0.00949 µM, first compound 0.000316 µM): 110% | viability, T/C (second compound 0.00949 µM, first compound 0.001 µM): 89.7% | viability, T/C (second compound 0.00949 µM, first compound 0.00316 µM): 85.5% | viability, T/C (second compound 0.00949 µM, first compound 0.01 µM): 74.2% | viability, T/C [13]: 73.5% | viability, T/C [14]: 56.5% | viability, T/C (second compound 0.03 µM, first compound 0.000316 µM): 108% | viability, T/C (second compound 0.03 µM, first compound 0.001 µM): 80.2% | viability, T/C (second compound 0.03 µM, first compound 0.00316 µM): 66% | viability, T/C (second compound 0.03 µM, first compound 0.01 µM): 78.3% | viability, T/C [19]: 77.7% | viability, T/C [20]: 62.5% | viability, T/C (second compound 0.0949 µM, first compound 0.000316 µM): 86.1% | viability, T/C (second compound 0.0949 µM, first compound 0.001 µM): 79.2% | viability, T/C (second compound 0.0949 µM, first compound 0.00316 µM): 66.8% | viability, T/C (second compound 0.0949 µM, first compound 0.01 µM): 76.9% | viability, T/C [25]: 73.4% | viability, T/C [26]: 48.9% | viability, T/C (second compound 0.3 µM, first compound 0.000316 µM): 83.2% | viability, T/C (second compound 0.3 µM, first compound 0.001 µM): 104% | viability, T/C (second compound 0.3 µM, first compound 0.00316 µM): 81% | viability, T/C (second compound 0.3 µM, first compound 0.01 µM): 74.8% | viability, T/C [31]: 64.5% | viability, T/C [32]: 48%

CC(Nc1ccc2c(c1)OCCn1cc(N3C(=O)OCC3C(F)F)nc1-2)C(N)=O (stereo not drawn) + CCn1c(-c2cccnc2C(C)OC)c2c3cc(ccc31)N1CCOC(CC(NC(=O)C(C(C)C)N(C)C(=O)C3(F)CCN(C(=O)C#CC(C)(C)N(C)C)CC3)C(=O)N3CCCC(N3)C(=O)OCC(C)(C)C2)C1
IC50 (second compound 0.000949 µM): > 10 µM | IC50 (second compound 0.003 µM): 8.53 µM | IC50 (second compound 0.00949 µM): > 10 µM | IC50 (second compound 0.03 µM): > 10 µM | IC50 (second compound 0.0949 µM): > 10 µM | IC50 (second compound 0.3 µM): > 10 µM | viability, T/C [1]: 80.8% | viability, T/C [2]: 68.8% | viability, T/C [3]: 68.7% | viability, T/C [4]: 34.9% | viability, T/C [5]: 80.1% | viability, T/C [6]: 39.4% | viability, T/C [7]: 95.4% | viability, T/C [8]: 79.6% | viability, T/C [9]: 62.1% | viability, T/C [10]: 50.1% | viability, T/C [11]: 86% | viability, T/C [12]: 37.5% | viability, T/C [13]: 103% | viability, T/C [14]: 84.1% | viability, T/C [15]: 72.3% | viability, T/C [16]: 62.9% | viability, T/C [17]: 81.9% | viability, T/C [18]: 42.3% | viability, T/C [19]: 91.8% | viability, T/C [20]: 70.1% | viability, T/C [21]: 59.9% | viability, T/C [22]: 45.3% | viability, T/C [23]: 89.3% | viability, T/C [24]: 37.8% | viability, T/C [25]: 71.8% | viability, T/C [26]: 67.5% | viability, T/C [27]: 52.6% | viability, T/C [28]: 50.4% | viability, T/C [29]: 100% | viability, T/C [30]: 40.9% | viability, T/C [31]: 69.6% | viability, T/C [32]: 52% | viability, T/C [33]: 70.8% | viability, T/C [34]: 52.8% | viability, T/C [35]: 69.1% | viability, T/C [36]: 42.1%

C[C@@H](NC(=O)c1ncnc(N)c1Cl)c1ncc(C(=O)Nc2cc(C(F)(F)F)c(Cl)cn2)s1 + CCn1c(-c2cccnc2C(C)OC)c2c3cc(ccc31)N1CCOC(CC(NC(=O)C(C(C)C)N(C)C(=O)C3(F)CCN(C(=O)C#CC(C)(C)N(C)C)CC3)C(=O)N3CCCC(N3)C(=O)OCC(C)(C)C2)C1
IC50 (second compound 0.000949 µM): > 10 µM | IC50 (second compound 0.003 µM): > 10 µM | IC50 (second compound 0.00949 µM): > 10 µM | IC50 (second compound 0.03 µM): > 10 µM | IC50 (second compound 0.0949 µM): > 10 µM | IC50 (second compound 0.3 µM): > 10 µM | viability, T/C [1]: 86.3% | viability, T/C [2]: 99.1% | viability, T/C [3]: 92.7% | viability, T/C [4]: 106% | viability, T/C [5]: 96.8% | viability, T/C [6]: 85.7% | viability, T/C [7]: 82.2% | viability, T/C [8]: 93.6% | viability, T/C [9]: 113% | viability, T/C [10]: 98.3% | viability, T/C [11]: 99.2% | viability, T/C [12]: 68.5% | viability, T/C [13]: 96.3% | viability, T/C [14]: 81.6% | viability, T/C [15]: 105% | viability, T/C [16]: 80.2% | viability, T/C [17]: 102% | viability, T/C [18]: 78.1% | viability, T/C [19]: 81% | viability, T/C [20]: 99% | viability, T/C [21]: 115% | viability, T/C [22]: 97.5% | viability, T/C [23]: 104% | viability, T/C [24]: 82.4% | viability, T/C [25]: 67.9% | viability, T/C [26]: 97.3% | viability, T/C [27]: 96.6% | viability, T/C [28]: 104% | viability, T/C [29]: 89.8% | viability, T/C [30]: 67.1% | viability, T/C [31]: 78.8% | viability, T/C [32]: 94.4% | viability, T/C [33]: 94.7% | viability, T/C [34]: 98% | viability, T/C [35]: 97.8% | viability, T/C [36]: 67.9%

— PubChem BioAssay AID2060888 (Molecular Pharmacology Branch, DTP, NCI, 2025)
